Entries after “also recorded” stand apart in the source; their conditions may differ. Like-named read-outs stand apart in the source and are kept apart here.
Key:
[1] = target: T1, α-glucosidase from baker’s yeast (Saccharomyces cerevisiae, UniProt P53341); assay: biochemical; type: biochemical; details: for fold higher α-glucosidase inhibitory activity than 5a: compared with compound 5a; for fold higher α-glucosidase inhibitory activity than 3: compared with compound 3
T1 construct: purchased Sigma G5003
Protocol: The commercially available α-glucosidase from baker’s yeast (Sigma, G5003) was selected as the target protein while using p-nitrophenyl-α-D-glucopyranoside (pNGP, Sigma, N1377) as the substrate. […] The enzyme and substrate were dissolved in potassium phosphate buffer (0.05 M, pH 6.8). The enzymatic reaction mixture that was composed of α-glucosidase (0.04 U, 20 μL), substrate (0.5 mM, 30 μL), test compounds (20 μL), and potassium phosphate buffer (130 μL) was incubated at 37 °C for 30 min. The enzymatic activity was detected by spectrophotometer at the wavelength of 405 nm. The results are the average of three independent experiments, each being performed in duplicate.

DPP-4 = target: T2, DPP-4 (Homo sapiens, UniProt P27487); assay: DPP-4 inhibition assay (glycyl proline p-nitroaniline substrate); type: biochemical; details: average of three independent experiments, each in duplicate; 37 °C, 30 min
T2 construct: purchased PROSPEC ENZ-375
Protocol: The enzyme and substrate were dissolved in Tris-HCl buffer (0.1 M, pH 8.0). The enzymatic reaction mixture that was composed of DPP-4 (0.01 U, 50 μL), substrate (2.2 mM, 50 μL), test compounds (10 μL), and Tris-HCl buffer (90 μL) was incubated at 37 °C for 30 min. […] The results are the average of three independent experiments, each being performed in duplicate.

HepG2 cells = assay: Glucose consumption assay in HepG2 cells; type: cell-based, human; details: 24 h
Protocol: Briefly, the HepG2 cells were cultured in Dulbecco’s-modified Eagle’s medium (DMEM) containing 25 mmol/L D-glucose, 10% heat-inactivated fetal bovine serum (FBS), 10 U/mL penicillin, and […] streptomycin at 37 °C, 5% CO2 atmosphere. The culture solution was replaced every other day and then passaged once for 2–3 d. The cells were seeded into 96-well plate with twenty-four wells left as blanks. After reaching 70–80% confluence, the cells were washed with PBS twice and the medium was replaced by DMEM containing 25 mmol/L D-glucose to hunger for 24 h. The cells were washed with PBS twice and the medium was replaced by RPMI-1640 containing 11.1 mmol/L glucose that was supplemented with 0.2% bovine serum albumin (BSA). To the medium was then added 1 mmol/L metformin or purified product at different concentrations, and DMSO was used as the blank control. The glucose concentration in the medium […] 24 h treatment. Glucose consumption = glucose concentrations of blank wells − glucose concentrations of plated wells. The sulforhodamine B (SRB) assay was used to adjust the glucose consumption values. The SRB assay is based on the measurement of cellular protein content. […] Bound SRB was solubilized with 150 μL Tris-base (10 mmol/L, pH 10.5) solution for OD determination at 546 nm while using a microplate reader.

α-glucosidase = target: T3, α-glucosidase (Saccharomyces cerevisiae, UniProt P53341); assay: Kinetics of enzyme inhibition (velocity vs enzyme plots, Lineweaver-Burk); type: biochemical, baker’s yeast; details: for reversibility of α-glucosidase inhibition: plots of velocity versus enzyme concentration at different inhibitor concentrations
T3 construct: purchased Sigma G5003
Protocol: The commercially available α-glucosidase from baker’s yeast (Sigma, G5003) was selected as the target protein while using p-nitrophenyl-α-D-glucopyranoside (pNGP, Sigma, N1377) as the substrate. The compounds and acarbose were dissolved in DMSO. The enzyme and substrate were dissolved in potassium phosphate buffer (0.05 M, pH 6.8). The enzymatic reaction mixture that was composed of α-glucosidase (0.04 U, 20 μL), substrate (0.5 mM, 30 μL), test compounds (20 μL), and potassium phosphate buffer (130 μL) was incubated at 37 °C for 30 min. The enzymatic activity was detected by spectrophotometer at the wavelength of 405 nm. The results are the average of three independent experiments, each being performed in duplicate.
The kinetics of enzyme inhibition was performed with the same assays detailed above, in the presence of different concentrations of compounds 4d and 5d, substrate, and enzyme, respectively. The inhibitory kinetics of 4d and 5d on α-glucosidase was analyzed using the Lineweaver-Burk plot of the substrate concentration and velocity.

[2] = average of three independent experiments, each in duplicate, 37 °C, 30 min, read-out: IC50 α-Glucosidase

T1 sequence (P53341 whole entry): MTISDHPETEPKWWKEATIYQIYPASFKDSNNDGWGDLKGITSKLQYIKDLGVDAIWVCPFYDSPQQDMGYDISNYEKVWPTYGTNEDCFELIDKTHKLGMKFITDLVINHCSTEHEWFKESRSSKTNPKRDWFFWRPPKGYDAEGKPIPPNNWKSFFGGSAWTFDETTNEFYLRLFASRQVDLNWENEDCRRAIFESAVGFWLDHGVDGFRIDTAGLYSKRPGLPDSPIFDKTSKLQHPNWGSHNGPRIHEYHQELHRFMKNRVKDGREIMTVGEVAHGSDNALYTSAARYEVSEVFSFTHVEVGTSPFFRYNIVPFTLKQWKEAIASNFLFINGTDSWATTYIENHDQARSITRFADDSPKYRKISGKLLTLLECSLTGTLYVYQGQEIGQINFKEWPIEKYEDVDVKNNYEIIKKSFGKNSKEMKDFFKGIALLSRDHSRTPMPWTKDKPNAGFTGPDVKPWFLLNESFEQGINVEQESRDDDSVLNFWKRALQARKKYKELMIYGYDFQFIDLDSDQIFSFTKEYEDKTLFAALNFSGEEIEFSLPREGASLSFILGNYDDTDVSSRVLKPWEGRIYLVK
T3 sequence (P53341 whole entry): as above
T2 sequence (P27487 whole entry): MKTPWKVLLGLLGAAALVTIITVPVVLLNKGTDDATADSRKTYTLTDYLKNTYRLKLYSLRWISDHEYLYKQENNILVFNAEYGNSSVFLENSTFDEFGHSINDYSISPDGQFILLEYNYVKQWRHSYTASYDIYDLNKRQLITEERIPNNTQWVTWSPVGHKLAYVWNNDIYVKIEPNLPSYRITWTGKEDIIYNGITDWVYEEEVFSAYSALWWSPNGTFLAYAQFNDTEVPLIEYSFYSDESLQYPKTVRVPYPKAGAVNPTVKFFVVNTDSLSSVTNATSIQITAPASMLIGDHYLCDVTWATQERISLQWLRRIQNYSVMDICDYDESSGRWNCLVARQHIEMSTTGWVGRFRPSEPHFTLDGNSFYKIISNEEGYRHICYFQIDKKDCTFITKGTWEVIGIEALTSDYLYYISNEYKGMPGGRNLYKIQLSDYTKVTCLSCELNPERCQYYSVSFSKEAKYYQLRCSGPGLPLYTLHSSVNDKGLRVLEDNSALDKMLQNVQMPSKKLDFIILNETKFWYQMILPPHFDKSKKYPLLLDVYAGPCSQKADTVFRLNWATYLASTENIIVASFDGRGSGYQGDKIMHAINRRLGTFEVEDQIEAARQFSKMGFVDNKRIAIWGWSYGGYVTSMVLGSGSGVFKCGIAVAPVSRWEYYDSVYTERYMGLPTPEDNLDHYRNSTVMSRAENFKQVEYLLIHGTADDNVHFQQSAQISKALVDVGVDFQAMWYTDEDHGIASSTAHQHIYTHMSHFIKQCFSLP

## CC1(C)C=Cc2c(O)c(Cc3c(O)c4c(c(C(=O)C=Cc5ccc(O)cc5O)c3O)OC(C)(C)C=C4)c(O)c(C(=O)C=Cc3ccc(O)cc3O)c2O1 (stereo in doubt) [Compound 5b, (2Z,2’Z)-1,1’-(Methylenebis(5,7-dihydroxy-2,2-dimethyl-2H-chromene-6,8-diyl))bis (3-(2,4-dihydroxyphenyl)prop-2-en-1-one)]
[1]
  IC50: 0.24 ± 0.02 µM
  fold higher α-glucosidase inhibitory activity than 5a: two-fold
DPP-4
  IC50: > 50 µM

## CC1(C)C=Cc2c(O)c(Cc3c(O)c4c(c(C(=O)C=Cc5ccccc5)c3O)OC(C)(C)C=C4)c(O)c(C(=O)C=Cc3ccccc3)c2O1 (stereo in doubt) [Compound 3, (2Z,2’Z)-1,1’-(Methylenebis(5,7-dihydroxy-2,2-dimethyl-2H-chromene-6,8-diyl))bis (3-phenylprop-2-en-1-one)]
[1]; [2]
  IC50: 5.91 ± 0.19 µM
DPP-4
  IC50: > 50 µM

## CC(=O)c1c(O)c(Cc2c(O)c3c(c(C(C)=O)c2O)OC(C)(C)C=C3)c(O)c2c1OC(C)(C)C=C2 [Compound 9, 1,1’-(Methylenebis(5,7-dihydroxy-2,2-dimethyl-2H-chromene-6,8-diyl))bis (ethan-1-one)]
[1]; [2]
  IC50: 7.11 ± 0.05 µM
DPP-4
  IC50: > 50 µM

## COc1c2c(c(C(=O)/C=C\c3ccccc3)c(O)c1Cc1c(O)c(C(=O)/C=C\c3ccccc3)c3c(c1OC)C=CC(C)(C)O3)OC(C)(C)C=C2 [Compound 12, (2Z,2’Z)-1,1’-(Methylenebis(7-hydroxy-5-methoxy-2,2-dimethyl-2H-chromene-6,8-diyl))bis(3-phenylprop-2-en-1-one)]
[1]
  IC50: 3.39 ± 0.13 µM
DPP-4
  IC50: > 50 µM

## CC1(C)C=Cc2c(O)cc(O)c(C(=O)/C=C/c3ccc(O)cc3)c2O1 [Compound 2, dehydrocyclodesmethylxanthohumol, reference compound]
[1]; [2]
  IC50: 9.74 ± 0.73 µM
DPP-4
  IC50: > 50 µM

## COc1ccc(C=CC(=O)c2c(O)c(Cc3c(O)c4c(c(C(=O)C=Cc5ccc(OC)cc5)c3O)OC(C)(C)C=C4)c(O)c3c2OC(C)(C)C=C3)cc1 (stereo in doubt) [Compound 4a, (2Z,2’Z)-1,1’-(Methylenebis(5,7-dihydroxy-2,2-dimethyl-2H-chromene-6,8-diyl))bis (3-(4-methoxyphenyl)prop-2-en-1-one)]
[1]
  IC50: 6.41 ± 0.33 µM
DPP-4
  IC50: > 50 µM

## CC1(C)C=Cc2c(O)c(Cc3c(O)c4c(c(C(=O)C=Cc5ccc(O)c(O)c5O)c3O)OC(C)(C)C=C4)c(O)c(C(=O)C=Cc3ccc(O)c(O)c3O)c2O1 (stereo in doubt) [Compound 5d, (2Z,2’Z)-1,1’-(Methylenebis(5,7-dihydroxy-2,2-dimethyl-2H-chromene-6,8-diyl))bis (3-(2,3,4-trihydroxyphenyl)prop-2-en-1-one)]
[1]
  IC50: 0.12 ± 0.02 µM
  fold higher α-glucosidase inhibitory activity than 5a: four-fold
HepG2 cells; 0.04 μM
  glucose consumption: significantly promote glucose consumption
HepG2 cells; 0.2 μM, metformin 1 mM positive control
  glucose consumption: significantly promote glucose consumption; also recorded: comparable to that of metformin
α-glucosidase; Lineweaver-Burk plot, 0, 0.2, 0.5 μM
  type of α-glucosidase inhibition: mixed competitive α-glucosidase inhibitor; also recorded: mixed competitive inhibitory mode
α-glucosidase
  reversibility of α-glucosidase inhibition: irreversibly; also recorded: irreversible α-glucosidase inhibitors
DPP-4
  IC50: 26.19 ± 0.22 µM

## CC1(C)C=Cc2c(O)c(Cc3c(O)c4c(c(C(=O)C=Cc5ccsc5)c3O)OC(C)(C)C=C4)c(O)c(C(=O)C=Cc3ccsc3)c2O1 (stereo in doubt) [Compound 4d, (2Z,2’Z)-1,1’-(Methylenebis(5,7-dihydroxy-2,2-dimethyl-2H-chromene-6,8-diyl))bis (3-(thiophen-3-yl)prop-2-en-1-one)]
[1]; [2]
  IC50: 0.22 ± 0.07 µM
[1]
  fold higher α-glucosidase inhibitory activity than 3: 26 fold
α-glucosidase
  reversibility of α-glucosidase inhibition: irreversibly; also recorded: irreversible α-glucosidase inhibitors
DPP-4
  IC50: 23.59 ± 0.14 µM

## CC(C)=CCc1c(O)cc(O)c(C(=O)/C=C/c2ccc(O)cc2)c1O [Compound 1, Desmethylxanthohumol, reference compound]
[1]; [2]
  IC50: 22.4 ± 3.1 µM
DPP-4
  IC50: > 50 µM

## CC1(C)C=Cc2c(O)c(Cc3c(O)c4c(c(C(=O)C=Cc5ccc(F)cc5)c3O)OC(C)(C)C=C4)c(O)c(C(=O)C=Cc3ccc(F)cc3)c2O1 (stereo in doubt) [Compound 4b, (2Z,2’Z)-1,1’-(Methylenebis(5,7-dihydroxy-2,2-dimethyl-2H-chromene-6,8-diyl))bis (3-(4-fluoro phenyl)prop-2-en-1-one)]
[1]
  IC50: 8.71 ± 0.54 µM
DPP-4
  IC50: > 50 µM

## CC1(C)C=Cc2c(O)c(Cc3c(O)c4c(c(C(=O)C=Cc5cccc(O)c5O)c3O)OC(C)(C)C=C4)c(O)c(C(=O)C=Cc3cccc(O)c3O)c2O1 (stereo in doubt) [Compound 5c, (2Z,2’Z)-1,1’-(Methylenebis(5,7-dihydroxy-2,2-dimethyl-2H-chromene-6,8-diyl))bis (3-(2,3-dihydroxyphenyl)prop-2-en-1-one)]
[1]
  IC50: 1.07 ± 0.06 µM
DPP-4
  IC50: > 50 µM

## CC1(C)C=Cc2c(O)c(Cc3c(O)c4c(c(C(=O)C=Cc5ccc(O)cc5)c3O)OC(C)(C)C=C4)c(O)c(C(=O)C=Cc3ccc(O)cc3)c2O1 (stereo in doubt) [Compound 5a, (2Z,2’Z)-1,1’-(Methylenebis(5,7-dihydroxy-2,2-dimethyl-2H-chromene-6,8-diyl))bis (3-(4-hydroxyphenyl)prop-2-en-1-one)]
[1]
  IC50: 0.51 ± 0.19 µM
  fold higher α-glucosidase inhibitory activity than 3: 10 fold
DPP-4
  IC50: > 50 µM

## COc1c2c(c(C(=O)/C=C\c3ccccc3)c(O)c1Cc1c(OC)c3c(c(C(=O)/C=C\c4ccccc4)c1OC)OC(C)(C)C=C3)OC(C)(C)C=C2 [Compound 13, (Z)-1-(6-((5,7-Dimethoxy-2,2-dimethyl-8-((Z)-3-phenylacryloyl)-2H-chromen-6-yl)methyl)-7-hydroxy-5-methoxy-2,2-dimethyl-2H-chromen-8-yl)-3-phenylprop-2-en-1-one]
[1]
  IC50: 0.37 ± 0.04 µM
[1]; compared with compound 12
  fold enhancement of α-glucosidase inhibitory activity compared to 12: 10 fold
DPP-4
  IC50: > 50 µM

## (2Z,2’Z)-1,1’-(Methylenebis(5,7-dihydroxy-2,2-dimethyl-2H-chromene-6,8-diyl))bis (3-(furan-3-yl)prop-2-en-1-one) [Compound 4c]
[1]; [2]
  IC50: 1.84 ± 0.41 µM
[1]
  fold higher α-glucosidase inhibitory activity than 3: three-fold
DPP-4
  IC50: 21.48 ± 0.09 µM

Source: publication PMC7919492, “Synthesis of Rottlerone Analogues and Evaluation of Their α-Glucosidase and DPP-4 Dual Inhibitory and Glucose Consumption-Promoting Activity” (Molecules, 2021)
